Assay results reported in patent publication US8623896B2, “Insecticidal compounds” (Syngenta Crop Protection, LLC, priority 2007, dated 2014).

Legend:
Type in all cases: in vivo
Conditions in all cases: same protocol, 200 ppm
[1] = test system: Plutella xylostella (Diamond Back Moth); experiment: Plutella xylostella larvae test on artificial diet
Procedure: (§1) 24-well microtiter plate (MTP) with artificial diet was treated with test solutions at an application rate of 200 ppm (concentration in well 18 ppm) by pipetting. After drying, the MTP's were infested with L2 larvae (7-12 per well). After an incubation period of 6 days, samples were checked for larval mortality and growth regulation.

[2] = test system: Thrips tabaci (Onion Trips); experiment: Thrips tabaci sunflower leaf disc spray test
[3] = test system: Diabrotica balteata (Corn Root Worm); experiment: Diabrotica balteata larvae test on artificial diet
Procedure: as §1, with “A 24-well” for “24-well”, “(6-10” for “(7-12”, “5” for “6”

[4] = test system: Spodoptera littoralis (Egyptian Cotton Leafworm); experiment: Spodoptera littoralis cotton leaf disc spray test
Source text: Cotton leaf discs were placed on agar in a 24-well microtiter plate and sprayed with test solutions at an application rate of 200 ppm. After drying, the leaf discs were infested with 5 L1 larvae. The samples were checked for mortality, feeding behavior, and growth regulation 3 days after treatment (DAT).

[5] = test system: Heliothis virescens (Tobacco Budworm); experiment: Heliothis virescens egg test on artificial diet
Procedure: Eggs (0-24 h old) were placed in 24-well microtiter plate on artificial diet and treated with test solutions at an application rate of 200 ppm (concentration in well 18 ppm) by pipetting. After an incubation period of 4 days, samples were checked for egg mortality, larval mortality, and growth regulation.

[6] = test system: Tetranychus urticae (Two-Spotted Spider Mite); experiment: Tetranychus urticae bean leaf disc spray test
Source text: Bean leaf discs on agar in 24-well microtiter plates were sprayed with test solutions at an application rate of 200 ppm. After drying, the leaf discs are infested with mite populations of mixed ages. 8 days later, discs are checked for egg mortality, larval mortality, and adult mortality.

Measured: effect on mortality, feeding behavior, or growth regulation

Cc1cc(C2=NOC(c3cc(Cl)cc(Cl)c3)(C(F)(F)F)C2)ccc1C(=O)NCC1CCN1Cc1ccccc1 (stereo not drawn) [B2]
little or no effect: all assays above

CC1(NC(=O)c2ccc(C3=NOC(c4cc(Cl)cc(Cl)c4)(C(F)(F)F)C3)cc2C#N)CSC1 (stereo not drawn) [A18]
little or no effect: all assays above

N#Cc1cc(C2=NOC(c3cc(Cl)cc(Cl)c3)(C(F)(F)F)C2)ccc1C(=O)NC1CSC1 (stereo not drawn) [A19]
little or no effect: all assays above
